{
  "source": "paper PMC5487684",
  "about": "“Safety, Pharmacokinetics, and Antiviral Activity of a Novel HIV Antiviral, ABX464, in Treatment-Naive HIV-Infected Subjects in a Phase 2 Randomized, Controlled Study” (Antimicrobial Agents and Chemotherapy, 2017)",
  "key": {"HIV [1]": {"system": "HIV", "test": "HIV viral load (HIV-1 RNA copies per milliliter) in treatment-naive HIV-infected patients", "assay_type": "in vivo", "description": "Safety assessments and laboratory tests were carried out according to the schedules described in Table S4 for groups dosed every day, every 3 days, and 3 times a day. Follow-up visits were scheduled for 7 days after the last dose and subsequently once every week in order to assess the elimination of the main ABX464 metabolite and to assess the viral load. Follow-up visits were terminated when the virus load was within 0.5 log of the baseline value or after 3 follow-up visits, whichever came first. Prior to the statistical analyses, AEs were coded using the Medical Dictionary for Regulatory Activities (MedDRA dictionary; last available version) in order to be tabulated by system organ class (SOC) and preferred term (PT). The AEs were analyzed according to the treatment emergence phase from the first study drug administration on day 1 up to 48 h after the last study drug administration. The number and percentage of subjects with at least one TEAE were tabulated by SOC and PT for each group and dose. The number of occurrences of TEAEs was also analyzed in the same way by SOC and PT for each group and dose, by grade of severity for each group and dose, and by level of causality to the study drug for each group and dose.\n(§1) Plasma samples were analyzed for ABX464 and ABX464-NGlc using validated bioanalytical methods by Atlanbio (Saint Nazaire, France) according to good laboratory practices. Pharmacokinetic parameters were calculated by noncompartmental analysis (NCA), using Phoenix WinNonlin software (Pharsight Corporation) running on a personal computer. On day 1, the following PK parameters were generated: Cmax, the time to Cmax (Tmax), lag time (tlag), elimination rate constant (kel), area under the concentration-time curve (AUC) from time zero to time t (AUC0–t), AUC from time zero to infinity (AUC0–∞), apparent clearance (CL/F), and apparent volume of distribution (V/F). On the other days of PK assessment, only Cmax, Tmax, tlag, kel, and AUC0–t were generated. The secondary analysis concerned pharmacodynamic (PD) activity, as expressed by CD4 and CD8 levels and viral load across time. The HIV viral load was analyzed in the prequalified individual local study center laboratories. CD4 and CD8 cell counts were also determined in the local study center laboratories. With respect to the viral load, changes in the log-transformed viral load values between 24 h postdose and predose were calculated on each day, and a comparison between each dose level and pooled placebo data was made. Moreover, the rate of success (defined as a decrease in the viral load value of at least 0.5 log) was evaluated for each treatment (including placebo) and compared between treatments.\nNo formal sample size determination was done. The aim of the study was to obtain reliable and consistent data and to expose a limited number of subjects to ABX464. To achieve this aim, six subjects per group received ABX464. A mixed model analysis of covariance of the changes in the viral load compared to that at the baseline was conducted on log-transformed values. Baseline parameters and age were covariates, treatment groups were fixed effects, and subjects were random effects."}, "CD4 and CD8 cell counts": {"system": "CD4 and CD8 cell counts", "test": "CD4 and CD8 cell counts in HIV-infected subjects", "assay_type": "in vivo, human", "description": "as §1, with “The secondary analysis concerned pharmacodynamic (PD) activity, as expressed by CD4 and CD8 levels and viral load across time.” left out"}, "[2]": {"conditions": "cited from earlier work"}, "HIV [3]": {"system": "HIV", "parameters": "method as in PMID 25889234", "conditions": "cited from earlier work"}, "HIV replication in PBMCs": {"system": "HIV replication in PBMCs", "parameters": "method as in PMID 25889234", "conditions": "in vitro; cited from earlier work"}, "[4]": {"system": "HIV replication in macrophages", "parameters": "method as in PMID 25889234", "conditions": "in vitro; cited from earlier work"}, "HIV [5]": {"system": "HIV", "parameters": "method as in PMID 25889234", "conditions": "human PBMCs, treatment for at least 24 weeks; cited from earlier work"}, "healthy subjects": {"system": "healthy subjects", "conditions": "cited from earlier work"}, "[6]": {"conditions": "Non-infected, single oral 50mg (fasted), N 17"}, "[7]": {"conditions": "Non-infected, single oral 50mg (fasted), N 23"}},
  "note": "Entries after “also recorded” stand apart in the source; their conditions may differ.",
  "data": [
    {"smiles": "FC(F)(F)Oc1ccc(Nc2ccc3cccc(Cl)c3n2)cc1", "note": "[ABX464]", "values": [
      {"measurement": "Change in log10 no. of RNA copies/ml from that at the baseline", "setting": "HIV [1]; Group 7 (150 mg every 3 days, fed), subject 908, day 20", "result": "−0.59 log10 no. of RNA copies/ml"},
      {"measurement": "Change in log10 no. of RNA copies/ml from that at the baseline", "setting": "HIV [1]; Group 8 (150 mg q.d., fed), subject 1001, day 10", "result": "−0.5 log10 no. of RNA copies/ml"},
      {"measurement": "Change in log10 no. of RNA copies/ml from that at the baseline", "setting": "HIV [1]; Group 8 (150 mg q.d., fed), subject 1001, day 11", "result": "−0.62 log10 no. of RNA copies/ml"},
      {"measurement": "Change in log10 no. of RNA copies/ml from that at the baseline", "setting": "HIV [1]; Group 8 (150 mg q.d., fed), subject 1001, day 14", "result": "−0.72 log10 no. of RNA copies/ml"},
      {"measurement": "Change in log10 no. of RNA copies/ml from that at the baseline", "setting": "HIV [1]; Group 8 (150 mg q.d., fed), subject 1001, day 15", "result": "−0.68 log10 no. of RNA copies/ml"},
      {"measurement": "Change in log10 no. of RNA copies/ml from that at the baseline", "setting": "HIV [1]; Group 8 (150 mg q.d., fed), subject 1004, day 10", "result": "−0.5 log10 no. of RNA copies/ml"},
      {"measurement": "Change in log10 no. of RNA copies/ml from that at the baseline", "setting": "HIV [1]; Group 8 (150 mg q.d., fed), subject 1004, day 14", "result": "−0.51 log10 no. of RNA copies/ml"},
      {"measurement": "Change in log10 no. of RNA copies/ml from that at the baseline", "setting": "HIV [1]; Group 8 (150 mg q.d., fed), subject 1004, day 15", "result": "−0.51 log10 no. of RNA copies/ml"},
      {"measurement": "Change in log10 no. of RNA copies/ml from that at the baseline", "setting": "HIV [1]; Group 8 (150 mg q.d., fed), subject 1005, day 7", "result": "−0.53 log10 no. of RNA copies/ml"},
      {"measurement": "Change in log10 no. of RNA copies/ml from that at the baseline", "setting": "HIV [1]; Group 8 (150 mg q.d., fed), subject 1005, day 11", "result": "−0.52 log10 no. of RNA copies/ml"},
      {"measurement": "Change in log10 no. of RNA copies/ml from that at the baseline", "setting": "HIV [1]; Group 8 (150 mg q.d., fed), subject 1008, day 8", "result": "−0.59 log10 no. of RNA copies/ml"},
      {"measurement": "Change in log10 no. of RNA copies/ml from that at the baseline", "setting": "HIV [1]; Group 8 (150 mg q.d., fed), subject 1008, day 10", "result": "−0.57 log10 no. of RNA copies/ml"},
      {"measurement": "Change in log10 no. of RNA copies/ml from that at the baseline", "setting": "HIV [1]; Group 8 (150 mg q.d., fed), subject 1008, day 11", "result": "−0.56 log10 no. of RNA copies/ml"},
      {"measurement": "Change in log10 no. of RNA copies/ml from that at the baseline", "setting": "HIV [1]; Group 8 (150 mg q.d., fed), subject 1008, day 14", "result": "−0.53 log10 no. of RNA copies/ml"},
      {"measurement": "Mean changes in the viral load vs placebo group", "setting": "HIV [1]; any time point over the 14-day study period, all treatment groups", "result": "No statistically significant differences"},
      {"measurement": "Subjects with a decrease of ≥0.5 log10 in HIV RNA load", "setting": "HIV [1]; group 1, 25 mg every 3 days, fasted", "result": 3, "unit": "subjects"},
      {"measurement": "Subjects with a decrease of ≥0.5 log10 in HIV RNA load", "setting": "HIV [1]; group 2, 25 mg q.d., fasted", "result": 1, "unit": "subjects"},
      {"measurement": "Subjects with a decrease of ≥0.5 log10 in HIV RNA load", "setting": "HIV [1]; group 4, 50 mg t.i.d., fed", "result": 2, "unit": "subjects"},
      {"measurement": "Subjects with a decrease of ≥0.5 log10 in HIV RNA load", "setting": "HIV [1]; group 5, 75 mg q.d., fed", "result": 1, "unit": "subjects"},
      {"measurement": "Subjects with a decrease of ≥0.5 log10 in HIV RNA load", "setting": "HIV [1]; group 6, 100 mg q.d., fasted", "result": 2, "unit": "subjects"},
      {"measurement": "Subjects with a decrease of ≥0.5 log10 in HIV RNA load", "setting": "HIV [1]; group 7, 150 mg every 3 days, fed", "result": 1, "unit": "subjects"},
      {"measurement": "Subjects with a decrease of ≥0.5 log10 in HIV RNA load", "setting": "HIV [1]; group 8, 150 mg q.d. for 2 weeks, fed (6 treated)", "result": 4, "unit": "subjects"},
      {"measurement": "CD4 profile", "setting": "CD4 and CD8 cell counts; each ABX464 dose", "result": "no trend associated with product use or dose"},
      {"measurement": "Mean changes in the CD8 cell counts from baseline", "setting": "CD4 and CD8 cell counts; human, in vivo", "result": "did not show any particular trend"},
      {"measurement": "AUC0-∞, GM", "setting": "[2]; [6]", "result": 43.93, "unit": "ng·h/mL"},
      {"measurement": "AUC0-∞, Mean", "setting": "[2]; [6]", "result": 51.74, "unit": "ng·h/mL"},
      {"measurement": "t1/2, GM", "setting": "[2]; [6]", "result": 49.8, "unit": "min"},
      {"measurement": "t1/2, Mean", "setting": "[2]; [6]", "result": 52.8, "unit": "min"},
      {"measurement": "Cmax, GM", "setting": "[2]; [7]", "result": 13.70, "unit": "ng/mL"},
      {"measurement": "Cmax, Mean", "setting": "[2]; [7]", "result": 17.70, "unit": "ng/mL"},
      {"measurement": "tmax, Mean", "setting": "[2]; [7]", "result": 90, "unit": "min"},
      {"measurement": "Metabolism in human subjects", "setting": "[2]; healthy subjects, single ascending oral dose", "result": "rapidly and substantially metabolized into ABX464-N-glucuronide"},
      {"measurement": "Virus replication in two humanized mouse models of HIV infection", "setting": "HIV [3]", "result": "substantially reduced virus replication"},
      {"measurement": "Mice with an undetectable viral load", "setting": "HIV [3]; humanized mice, after 2 to 3 weeks of treatment", "result": 30, "unit": "%"},
      {"measurement": "Virus rebound after termination of therapy", "setting": "HIV [3]; vs cART-treated control animals, over 6 weeks after treatment termination", "result": "substantially lower virus rebound"},
      {"measurement": "Antiviral effect on HIV replication in PBMCs", "setting": "HIV replication in PBMCs", "result": "can inhibit HIV replication"},
      {"measurement": "Inhibition of HIV replication in macrophage culture", "setting": "[4]", "result": "can inhibit HIV replication"},
      {"measurement": "Development of drug resistance in vitro", "setting": "HIV [5]", "result": "no development of resistance-inducing mutations; also recorded: did not induce any drug resistance"},
      {"measurement": "Tolerability in healthy volunteers, food effect and repeated dosing study", "setting": "healthy subjects", "result": "good tolerability profile"},
      {"measurement": "Tolerability in healthy subjects, first-in-human study", "setting": "healthy subjects; single ascending oral dose, up to 150 mg", "result": "very well tolerated; also recorded: well tolerated"}
    ]}
  ]
}
